Experimental data taken from paper PMC10038264, “A new family of glutamate-gated chloride channels in parasitic sea louse Caligus rogercresseyi: A subunit refractory to activation by ivermectin is dominant in heteromeric assemblies” (PLOS Pathogens, 2023).
“And” between values parts separate entries of the source, which are not always exact repeats. Identical values can stand only once. “Also recorded” adds a separate entry of the source. Like-named read-outs stand apart in the source and are kept apart here.

Tests used:
DmGluClα = system: DmGluClα; set-up: method as in PMID 7935817, PMID 8702744, PMID 25994631; conditions: read-out: EC50 glutamate; cited from earlier work
AgGluCl = system: AgGluCl; set-up: method as in PMID 7935817, PMID 8702744, PMID 25994631; conditions: read-out: EC50 glutamate; cited from earlier work
HcGluClα = system: HcGluClα; set-up: method as in PMID 7935817, PMID 8702744, PMID 25994631; conditions: read-out: EC50 glutamate; cited from earlier work
CrGluCl-B = assay: Two-electrode voltage-clamp of Xenopus oocytes expressing CrGluCl-B; type: cell-based, Caligus rogercresseyi; conditions: for activation by ivermectin (EC50 Ivermectin column): CrGluCl-B WT alone, 1-3 μM ivermectin
Protocol: (§1) Adult female Xenopus laevis frogs were anaesthetized by immersion in a1g/L solution tricaine (Ethyl 3-aminobenzoate methanesulfonate, Sigma) buffered to pH 7 with NaHCO3. Surgery was performed 30–40 min later, once the frog was completely anaesthetized judging by loss of reflexes. Ovarian lobes were removed through 1 cm abdominal incision and then kept at 16°C in Barth’s modified solution containing (in mM): 88 NaCl, 1 KCl, 0.4 CaCl2, 0.3 Ca (NO3)2, 0.8 MgSO4, 2.4 NaHCO3, 5 Hepes, 2.5 sodium pyruvate, 100 μg/ml gentamicin sulfate, 100 U/ml penicillin, 100 μg/ml streptomycin, 250 μg/ml amphotericin B, 0.22μm filtered and adjusted to pH 7.5 with Tris-Base. Osmolarity was brought to 220 mOsm with saccharose. The oocytes were manually defolliculated on the same day of extraction and the following day 20 ng cRNA in nuclease-free water was injected into stage V-VI oocytes using a FemtoJet microinjector (Eppendorf). Finally, the injected oocytes were stored in 96 well plates containing Barth’s modified solution and kept at 16°C until experiment day.
Current measurements at controlled membrane potentials (voltage-clamp experiments) were performed using two intracellular microelectrodes in defolliculated Xenopus oocytes previously microinjected with 20 ng of cRNA. Voltage-clamp recording was performed at room temperature using a TURBO TEC-10CX amplifier (npi electronic GmbH, Tamm, Germany) and PClamp 10.6 software (Axon Instruments, USA), 1 to 4 days after oocyte injection. The oocytes were recorded in a chamber (Model RC-1Z, Warner Instrumenst, USA) under continuous superfusion. […] Reference was an Ag-AgCl electrode connected to the bath via a 3 M KCl in 3% agar bridge. Currents were recorded continuously during the experiments without interruptions for solution changes. Oocytes were held at -30 mV and a voltage protocol consisting of a voltage drop to -100 mV for 25ms followed by a 360 ms ramp from -100 mV to 60mV applied with a period of 565 ms was continuously given. The signal filtered at 1 kHz was acquired with a Digidata 1440A Analog-to-Digital Converter and analyzed with Axon pClamp 10.6 software. The solution that bathed the oocytes during the electrophysiological recordings had the following composition (mM): 115 NaCl, 2 KCl, 1.8 CaCl2, 1 MgCl2, 10 HEPES pH 7.5 obtained with NaOH. For the low chloride solution, all the NaCl was replaced with the gluconate salt of Na. This decreases chloride concentration from 122.6 to 7.6 mM while increasing that of gluconate from 0 to 115 mM. The stock solutions of the drugs in dimethyl sulfoxide (DMSO) were: 10 mM emamectin, 10 mM ivermectin, 100 mM picrotoxin. These were diluted in bath solution to obtain final concentrations.
The currents were normalized according to the extrapolated maximum current delivered by the Hill adjustment. In this way, the concentration that generates 50% of the maximum effect (EC50) and the Hill coefficient (nH) for each situation were obtained.

CrGluCl-B M340T mutant = assay: Voltage-clamp of oocytes expressing CrGluCl-B M340T mutant; type: cell-based, Caligus rogercresseyi; conditions: 1 μM ivermectin
Excerpt: To identify putative GluCl subunits, we queried the NCBI Transcriptome Shotgun Assembly Sequence (TSA) Database for “glutamate-gated chloride channel Caligus”. The obtained sequences were translated and BLASTed (tBLASTn) against the C. rogercresseyi genome (WGS, BioProject ID 280098, NCBI) and against transcripts of L. salmonis database (https://licebase.org/). Primers for each of the putative new subunit found were designed to span the full length of the open reading frame (ORF) for each of them (B-E) (S1 Table, and arrows in Fig 1). Complete cDNAs were generated by RT-PCR from adult C. rogercresseyi samples from which putative full-length peptide sequences of CrGluCl-B, CrGluCl-C, CrGluCl-D and CrGluCl-E were obtained. Each PCR product was cloned in pGEM-T easy vector and sequenced. […]
(§2) Current measurements at controlled membrane potentials (voltage-clamp experiments) were performed using two intracellular microelectrodes in defolliculated Xenopus oocytes previously microinjected with 20 ng of cRNA. […] The oocytes were recorded in a chamber (Model RC-1Z, Warner Instrumenst, USA) under continuous superfusion. […] Currents were recorded continuously during the experiments without interruptions for solution changes. […] The signal filtered at 1 kHz was acquired with a Digidata 1440A Analog-to-Digital Converter and analyzed with Axon pClamp 10.6 software. […]

[1] = system: coexpressed CrGluCl-D:CrGluCl-C; assay: Voltage-clamp of oocytes coinjected with CrGluCl-D and CrGluCl-C; type: cell-based, Caligus rogercresseyi; conditions: D:C ratio 1:1
Protocol: as §1, with “The oocytes were manually defolliculated on the same day of extraction and the following day 20 ng cRNA in nuclease-free water was injected into stage V-VI oocytes using a FemtoJet microinjector (Eppendorf). Finally, the injected oocytes were stored in 96 well plates containing Barth’s modified solution and kept at 16°C until experiment day.” left out
as §2

Molecule | EC50 (DmGluClα) | EC50 (AgGluCl) | EC50 (HcGluClα) | current evoked by glutamate after ivermectin treatment (CrGluCl-B; 1 mM glutamate after 1 μM ivermectin, CrGluCl-B) | activation by ivermectin (EC50 Ivermectin column) (CrGluCl-B) | activation by ivermectin (EC50 Ivermectin column) (CrGluCl-B; listed as Ivermectin) | nH (ivermectin inhibition) (CrGluCl-B; CrGluCl-B, 3 mM glutamate) | IC50 (CrGluCl-B; CrGluCl-B, as restated in discussion, read-out: IC50 ivermectin inhibition of glutamate-activated current) | IC50 (CrGluCl-B; CrGluCl-B, continuous 3 mM glutamate, read-out: IC50 ivermectin antagonism of glutamate-elicited current) | effect of ivermectin on current (CrGluCl-B M340T mutant) | Iver response to activation [1]
N[C@@H](CCC(=O)O)C(=O)O [glutamate, L-glutamate] | 23 µM | 30 µM | 28 µM | – | – | – | – | – | – | – | –
ivermectin | – | – | – | 1.70 ± 1.69 μA | without effect | no effect; also recorded: Insensitive | -2.2 ± 0.5 and -2.2 | 0.34 µM | 0.342 ± 0.114 µM | no effect | Sensitive
